# Test results as given in PMC7339578, “Multiple circulating alkaloids and saponins from intravenous Kang-Ai injection inhibit human cytochrome P450 and UDP-glucuronosyltransferase isozymes: potential drug–drug interactions” (Chinese Medicine, 2020).
# “And” between values parts separate entries of the source, which are not always exact repeats. Identical values can stand only once. Like-named read-outs stand apart in the source and are kept apart here.
# Legend:
# UGT1A9 = target: T1, UGT1A9 (Homo sapiens, UniProt O60656); assay: Inhibition of expressed UGT1A9 (probe propofol); type: in vitro ADME
# T1 sequence (O60656 26-530): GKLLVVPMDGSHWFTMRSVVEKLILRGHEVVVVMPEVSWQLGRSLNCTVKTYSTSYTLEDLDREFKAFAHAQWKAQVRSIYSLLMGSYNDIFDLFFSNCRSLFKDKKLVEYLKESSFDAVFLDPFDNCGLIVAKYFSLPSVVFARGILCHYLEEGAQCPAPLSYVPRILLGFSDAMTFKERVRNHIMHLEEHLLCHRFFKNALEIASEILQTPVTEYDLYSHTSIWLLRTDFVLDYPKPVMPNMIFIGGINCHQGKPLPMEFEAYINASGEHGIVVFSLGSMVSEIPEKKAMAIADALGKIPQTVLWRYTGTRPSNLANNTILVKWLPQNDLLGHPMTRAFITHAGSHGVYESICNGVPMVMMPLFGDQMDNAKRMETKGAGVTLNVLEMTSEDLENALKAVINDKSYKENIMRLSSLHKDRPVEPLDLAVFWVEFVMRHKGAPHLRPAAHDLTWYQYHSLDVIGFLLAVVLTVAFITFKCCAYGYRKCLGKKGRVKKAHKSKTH
# Description: (§1) After centrifugation (13,800g, 10 min), the supernatant (8 μL) was obtained for determination by UHPLC system.
# (§2) Similarly, β-estradiol (60 μM), propofol (40 μM) and 4-MU (350 μM) were typically used as the substrates for UGT1A1, 1A9 and 2B7, respectively. After optimization of incubation conditions (Additional file 1: Fig. S2), the protein concentrations for UGT1A1, 1A9, and 2B7 were 0.125, 0.05, and 0.05 mg/mL, respectively.
# UGT2B7 = target: T2, UGT2B7 (Homo sapiens, UniProt P16662); assay: Inhibition of expressed UGT2B7 (probe 4-MU); type: in vitro ADME
# T2 sequence (P16662 24-529): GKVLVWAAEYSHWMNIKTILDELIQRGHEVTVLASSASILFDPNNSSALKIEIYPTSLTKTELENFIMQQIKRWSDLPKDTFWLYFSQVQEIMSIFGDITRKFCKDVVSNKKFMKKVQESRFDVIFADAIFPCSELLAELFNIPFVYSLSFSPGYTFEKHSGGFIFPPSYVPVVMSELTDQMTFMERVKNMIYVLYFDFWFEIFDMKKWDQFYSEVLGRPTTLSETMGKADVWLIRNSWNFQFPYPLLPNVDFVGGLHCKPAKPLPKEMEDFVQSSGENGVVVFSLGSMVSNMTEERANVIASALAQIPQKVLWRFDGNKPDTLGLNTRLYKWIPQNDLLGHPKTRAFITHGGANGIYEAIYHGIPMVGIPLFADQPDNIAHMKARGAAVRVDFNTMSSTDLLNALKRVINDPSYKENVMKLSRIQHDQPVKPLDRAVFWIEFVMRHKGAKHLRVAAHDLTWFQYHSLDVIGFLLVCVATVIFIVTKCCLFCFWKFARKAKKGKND
# Description: as §1, §2
# [1] = Urinary (renal) excretion in rats after a 30-min infusion of Kang-Ai injection; type: in vivo, Sprague–Dawley rats; conditions: Kang-Ai injection 6 mL/kg iv; for fraction of dose excreted unchanged via renal plus hepatobiliary excretion (sum of fe-U and fe-B): rat urine + bile, 0–12 h; for CL renal: male, Sprague-Dawley, urine and plasma, rat, read-out: CLR (renal excretory clearance) (converted); for fe-U,0–12h (fraction of dose excreted into urine): rat urine 0–12 h
# Outline: (§3)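 Urine collected in metabolic cages at 0–4, 4–8, 8–12 h and bile at 0–3, 3–6, 6–9, 9–12 h after infusion start, weighed and frozen at −80 °C. Non-compartmental analysis; CLR and CLB as cumulative urinary or biliary amount divided by plasma AUC0-∞, fe-U and fe-B as cumulative amount/dose; mean ± SD (n = 3).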
# [2] = Stability tests of analytes in rat plasma QC samples; type: in vitro ADME
# Description: […] The dilution integrity was investigated by analyzing six replicate samples with each analyte, and each analyte were diluted 10-fold with blank rat matrix. Furthermore, the diluted samples were analyzed using freshly prepared calibration curve to calculate RE and RSD, which should be no more than ± 15% as criterion.
# CYP3A4 = CYP3A4 (Homo sapiens, UniProt P08684); assay: Inhibition of recombinant CYP3A4 (probe nifedipine); type: in vitro ADME
# Description: In this study, phenacetin (100 μM), coumarin (100 μM), bupropion (100 μM), paclitaxel (60 μM), tolbutamide (200 μM), mephenytoin (100 μM), chlorzoxazone (200 μM) and nifedipine (40 μM) have been used as the probe substrates for CYP1A2, 2A6, 2B6, 2C8, 2C9, 2C19, 2E1 and 3A4, respectively.
# [3] = Biliary (hepatobiliary) excretion in rats after a 30-min infusion of Kang-Ai injection; type: in vivo, Sprague–Dawley rats; conditions: Kang-Ai injection 6 mL/kg iv
# Outline: as §3
# [4] = recombinant isozyme, mean ± SD of triplicate, unit not given (IC50 classes in μM), read-out: IC50 towards UGT1A9
# [5] = recombinant isozyme, mean ± SD of triplicate, unit not given (IC50 classes in μM), read-out: IC50 towards UGT2B7
# [6] = rat plasma, nominal conc. 80 nM
# [7] = rat plasma, nominal conc. 400 nM
# [8] = rat plasma, nominal conc. 1600 nM
# [9] = recombinant isozyme, mean ± SD of triplicate, unit not given (IC50 classes in μM), read-out: IC50 towards CYP3A4
# [10] = rat plasma, nominal conc. 20 nM
# [11] = rat plasma, nominal conc. 100 nM
# CYP3A4, sequence (P08684 whole entry): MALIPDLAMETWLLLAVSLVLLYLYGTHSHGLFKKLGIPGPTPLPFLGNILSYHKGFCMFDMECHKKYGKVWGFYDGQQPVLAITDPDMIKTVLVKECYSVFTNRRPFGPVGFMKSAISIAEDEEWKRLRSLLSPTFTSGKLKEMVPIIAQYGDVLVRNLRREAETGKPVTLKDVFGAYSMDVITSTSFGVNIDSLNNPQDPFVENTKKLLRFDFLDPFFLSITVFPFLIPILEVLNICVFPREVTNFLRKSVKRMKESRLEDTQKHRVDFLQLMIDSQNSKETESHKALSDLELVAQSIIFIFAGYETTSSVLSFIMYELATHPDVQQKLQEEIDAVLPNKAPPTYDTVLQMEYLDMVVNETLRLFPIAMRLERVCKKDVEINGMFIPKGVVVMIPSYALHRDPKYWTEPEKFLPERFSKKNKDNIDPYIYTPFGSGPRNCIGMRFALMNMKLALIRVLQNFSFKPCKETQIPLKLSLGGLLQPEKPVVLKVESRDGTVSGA
SMILES,IC50 (UGT1A9; [4]),IC50 (UGT2B7; [5]),fraction of dose excreted unchanged via renal plus hepatobiliary excretion (sum of fe-U and fe-B) [1],"At -80 °C for 48 h, Mean±SD [2, 7]","At -80 °C for 48 h, RE [2, 7]","Extracted samples at 8 °C for 18 h, Mean±SD [2, 7]","Extracted samples at 8 °C for 18 h, RE [2, 7]","Short-term stability at room temperature for 6 h, Mean±SD [2, 7]","Short-term stability at room temperature for 6 h, RE [2, 7]","Three freeze-thaw cycles (-80 °C ↔ 23 °C), Mean±SD [2, 7]","Three freeze-thaw cycles (-80 °C ↔ 23 °C), RE [2, 7]",IC50 (CYP3A4; [9]),CL renal [1],"fe-U,0–12h (fraction of dose excreted into urine) [1]","At -80 °C for 48 h, Mean±SD [2, 10]","At -80 °C for 48 h, RE [2, 10]","Extracted samples at 8 °C for 18 h, Mean±SD [2, 10]","Extracted samples at 8 °C for 18 h, RE [2, 10]","Short-term stability at room temperature for 6 h, Mean±SD [2, 10]","Short-term stability at room temperature for 6 h, RE [2, 10]",further results
"CC(C)(O)[C@@H]1CC[C@](C)([C@H]2[C@@H](O)C[C@@]3(C)[C@@H]4C[C@H](O[C@@H]5O[C@H](CO)[C@@H](O)[C@H](O)[C@H]5O)[C@H]5C(C)(C)[C@@H](O[C@@H]6OC[C@@H](O)[C@H](O)[C@H]6O)CC[C@@]56C[C@@]46CC[C@]23C)O1 [Compound B2, Astragaloside IV]",> 100 µM,> 100 µM,about 25%,378.90 ± 6.78 nM,-7.16%,376.72 ± 29.81 nM,-10.44%,361.42 ± 15.40 nM,-13.36%,385.93 ± 32.19 nM,-12.56%,> 100 µM,,,,,,,,,"At -80 °C for 48 h, Mean±SD [2, 6]: 87.06 ± 0.84 nM; At -80 °C for 48 h, RE [2, 6]: 9.91%; Extracted samples at 8 °C for 18 h, Mean±SD [2, 6]: 80.76 ± 10.01 nM; Extracted samples at 8 °C for 18 h, RE [2, 6]: -13.07%; Short-term stability at room temperature for 6 h, Mean±SD [2, 6]: 82.35 ± 9.84 nM; Short-term stability at room temperature for 6 h, RE [2, 6]: -11.26%; Three freeze-thaw cycles (-80 °C ↔ 23 °C), Mean±SD [2, 6]: 88.56 ± 1.31 nM; Three freeze-thaw cycles (-80 °C ↔ 23 °C), RE [2, 6]: 12.35%; At -80 °C for 48 h, Mean±SD [2, 8]: 1507.16 ± 152.79 nM; At -80 °C for 48 h, RE [2, 8]: -12.08%; Extracted samples at 8 °C for 18 h, Mean±SD [2, 8]: 1574.79 ± 151.38 nM; Extracted samples at 8 °C for 18 h, RE [2, 8]: -11.93%; Short-term stability at room temperature for 6 h, Mean±SD [2, 8]: 1463.38 ± 60.14 nM; Short-term stability at room temperature for 6 h, RE [2, 8]: -11.64%; Three freeze-thaw cycles (-80 °C ↔ 23 °C), Mean±SD [2, 8]: 1434.32 ± 47.18 nM; Three freeze-thaw cycles (-80 °C ↔ 23 °C), RE [2, 8]: -13.10%"
"O=C1CCC[C@@H]2[C@H]3CCCN4CCC[C@@H](CN12)[C@@H]34 [Compound A1, Matrine]",,,exceeded 90%,394.46 ± 17.47 nM,-6.06%,402.13 ± 26.43 nM,7.87%,420.24 ± 21.99 nM,11.33%,415.19 ± 9.89 nM,5.94%,,0.015 mL/min,57.40% and 57.40 ± 4.88%,21.33 ± 1.64 nM,10.69%,21.75 ± 0.99 nM,13.23%,20.84 ± 0.75 nM,8.05%,"IC50 (UGT1A9): > 100 µM; IC50 (UGT2B7): > 100 µM; fe-B,0–12h (fraction of dose excreted into bile) ([3]; rat bile 0–12 h): 36.55% and 36.55 ± 4.24%; Three freeze-thaw cycles (-80 °C ↔ 23 °C), Mean±SD [2, 10]: 20.11 ± 1.97 nM; Three freeze-thaw cycles (-80 °C ↔ 23 °C), RE [2, 10]: -9.75%; At -80 °C for 48 h, Mean±SD [2, 11]: 106.76 ± 6.22 nM; At -80 °C for 48 h, RE [2, 11]: 13.15%; Extracted samples at 8 °C for 18 h, Mean±SD [2, 11]: 95.18 ± 2.64 nM; Extracted samples at 8 °C for 18 h, RE [2, 11]: -7.17%; Short-term stability at room temperature for 6 h, Mean±SD [2, 11]: 100.30 ± 2.84 nM; Short-term stability at room temperature for 6 h, RE [2, 11]: 3.05%; Three freeze-thaw cycles (-80 °C ↔ 23 °C), Mean±SD [2, 11]: 104.44 ± 12.01 nM; Three freeze-thaw cycles (-80 °C ↔ 23 °C), RE [2, 11]: 14.16%; IC50 (CYP3A4): > 100 µM"
"CC(C)=CCC[C@](C)(O[C@@H]1O[C@H](CO[C@@H]2O[C@@H](CO)[C@H](O)[C@H]2O)[C@@H](O)[C@H](O)[C@H]1O)[C@H]1CC[C@]2(C)[C@@H]1[C@H](O)C[C@@H]1[C@@]3(C)CC[C@H](O[C@@H]4O[C@H](CO)[C@@H](O)[C@H](O)[C@H]4O[C@@H]4O[C@H](CO)[C@@H](O)[C@H](O)[C@H]4O)C(C)(C)[C@@H]3CC[C@]12C [Compound D3, Ginsenoside Rc]",29 ± 12.7 µM,> 100 µM,,421.69 ± 7.21 nM,7.06%,432.26 ± 28.61 nM,12.97%,366.80 ± 3.85 nM,-9.03%,413.15 ± 9.39 nM,5.12%,> 100 µM,0.00967 mL/min,10.48 ± 1.31%,21.79 ± 0.54 nM,11.90%,21.26 ± 0.64 nM,9.82%,21.00 ± 1.54 nM,10.56%,"inhibition type (smallest AIC and SC) (UGT1A9; UGT1A9): Noncompetitive inhibition; Ki (UGT1A9; UGT1A9, competitive model): 8.9 ± 1.5 µM; Ki (UGT1A9; UGT1A9, mixed-type model): 27 ± 7.5 µM; α (UGT1A9; UGT1A9, mixed-type model): 0.7 ± 0.3; Ki (UGT1A9; UGT1A9, noncompetitive model): 22.3 ± 1.4 µM; Cmax/Ki ([I]/Ki) (UGT1A9; UGT1A9, selected model, rat plasma Cmax): 0.04; IC50 (UGT1A9; propofol 40 μM, read-out: IC50 against UGT1A9): 29 µM; detection in bile ([3]; rat bile): not detected in bile; Three freeze-thaw cycles (-80 °C ↔ 23 °C), Mean±SD [2, 10]: 22.31 ± 0.31 nM; Three freeze-thaw cycles (-80 °C ↔ 23 °C), RE [2, 10]: 12.70%; At -80 °C for 48 h, Mean±SD [2, 11]: 92.14 ± 3.15 nM; At -80 °C for 48 h, RE [2, 11]: -10.73%; Extracted samples at 8 °C for 18 h, Mean±SD [2, 11]: 91.90 ± 3.48 nM; Extracted samples at 8 °C for 18 h, RE [2, 11]: -12.09%; Short-term stability at room temperature for 6 h, RE [2, 11]: -13.45%; Three freeze-thaw cycles (-80 °C ↔ 23 °C), Mean±SD [2, 11]: 107.11 ± 6.52 nM; Three freeze-thaw cycles (-80 °C ↔ 23 °C), RE [2, 11]: 11.88%; Short-term stability at room temperature for 6 h, Mean±SD ([2]; rat, 6 h, 100 nM): 94.62 ± 9.91 nM"
